Measurements taken from patent US12414919B2, “Method for preparing biocompatible polymer-based apixaban-loaded microspheres” (HLB PHARMACEUTICAL CO., LTD., priority 2019, dated 2025).

Columns and labels:
[1] = oral administration; cited from earlier work
[2] = Dissolution of Apixaban in non-halogen organic solvents; format: physicochemical; details: 25 mg Apixaban in 1 mL of each of ethyl acetate, ethyl formate, methyl propionate, ethanol; stirred
Procedure: 25 mg of Apixaban was added to 1 mL of each of ethyl acetate, ethyl formate, methyl propionate, and ethanol and stirred. As a result, it was confirmed that Apixaban was not dissolved in the four organic solvents (FIG. 1).

[3] = Dissolution of Apixaban in halogen organic solvent (dichloromethane); format: physicochemical; details: 25 mg Apixaban in 1 mL dichloromethane, after 12 hours
Procedure: 25 mg of Apixaban was dissolved in 1 mL, of dichloromethane, and the mixture was photographed after 12 hours.

In the case of `COc1ccc(-n2nc(C(N)=O)c3c2C(=O)N(c2ccc(N4CCCCC4=O)cc2)CC3)cc1` [Apixaban], the bioavailability [1] is listed as “about 50%”, the “Dissolution of Apixaban in non-halogen organic solvents” value [2] is listed as “not dissolved” and the “Dissolution / recrystallization of Apixaban in dichloromethane” value [3] is listed as “Apixaban crystals were formed”.
